According to ChEMBL document CHEMBL1157539, “Thousands of chemical starting points for antimalarial lead identification” (Nature, 2010):

Tested on: Plasmodium falciparum
Test: GSK_TCMDC: Inhibition of Plasmodium falciparum 3D7 in whole erythrocytes, using parasite LDH activity as an index of growth.
Type: functional, organism-based
Conditions: Plasmodium falciparum, 3D7

Work on `O=C(/C=C/c1ccc(Cl)c(Cl)c1)NCCCCCN1CCC(c2c[nH]c3c(-c4ccccc4)cccc23)CC1` yielded an XC50 of 246 nM.
`CN(C)CCCN(C)C(=O)c1cc2cc(-c3ccccc3)ccc2n1S(=O)(=O)c1ccccc1` showed an XC50 of 462 nM.
`CCNc1cc(CCCC(=O)OCC)nc(Nc2ccc(C)cc2)n1` gave an XC50 of 771 nM.
For `Fc1ccc2[nH]c(-c3cccc(-c4cccc(CN5CCN(c6ccncc6)CC5)c4)c3)nc2c1`, the XC50 was 145 nM.
In the case of `O=C(Nc1cccc(N2CCC(NCCCc3ccncc3)CC2)c1)c1cccc(C(F)(F)F)c1`, the XC50 was 853 nM.
Molecule `Fc1ccc2[nH]c(-c3ccc(-c4ccc(CNCCN5CCNCC5)cc4)cc3)nc2c1` has an XC50 of 850 nM.
Work on `COc1cc(Cc2cnc(N)nc2N)cc(OCCCCC2NC(=O)NC2=O)c1OC` (configuration not stated) yielded an XC50 of 714 nM.
With `Clc1cc(Cl)cc(Nc2ccnc(Nc3cc(Cl)cc(Cl)c3)n2)c1` the XC50 was 672 nM.
Molecule `COc1ccc(-c2cccc(NC(=O)c3ccc(F)cc3)c2)cc1CNC(C)C` has an XC50 of 1380 nM.
`CCC(C)(C)c1ccc(OCC(O)CN2CCCCC2)c(C(C)(C)CC)c1` (configuration not stated) gave an XC50 of 1300 nM.
For `Nc1cccc(C=CC(=O)N=c2cc[nH]c3ccccc23)c1`, the XC50 was 1060 nM.
`CCc1cn2c3c(cc(C(=O)N[C@@H](Cc4cc(F)cc(F)c4)[C@H](O)CNC4CC4)cc13)N(C)S(=O)(=O)CC2` was tested, and the XC50 was 119 nM.
`Cc1cccc2nc(-c3ccc(-c4cccc(CN5CCC(C(N)=O)CC5)c4)s3)[nH]c12` was tested, and the XC50 was 1260 nM.
With `CN1CCN(c2nsc3ccc(-c4ccc(OCCN5CCCC5)cc4)cc23)CC1` the XC50 was 826 nM.
With `O=C(O[C@@H]1CN[C@H](C#Cc2cc3ncnc(Nc4ccc5c(cnn5Cc5cccc(F)c5)c4)c3s2)C1)N1CCCC1` the XC50 was 757 nM.
Work on `COc1ccc(-c2ccc(Nc3cccc(S(=O)(=O)CCN4CCC(CCN(C)C)CC4)c3)nc2)cn1` yielded an XC50 of 1120 nM.
With `O=C(NC1CCCc2ccccc21)C1CCCN(C(=O)c2ccc(O)c(-c3ccc(Cl)c(Cl)c3)c2)C1` (configuration not stated) the XC50 was 1140 nM.
`CC(c1cccc(S(=O)(=O)NCc2cccc(C(F)(F)F)c2)c1)N1CCC(N2CCCCC2)CC1` (configuration not stated) showed an XC50 of 695 nM.
With `CC1(C)NC(N)=NC(=N)N1OCCCc1cccc(C(F)(F)F)c1` the XC50 was 3.2 nM.
For `CCCN1CCc2c(sc3nc(SCC(=O)Nc4ccc(C)cc4)n(-c4ccc(C)cc4)c(=O)c23)C1`, the XC50 was 869 nM.
`Cc1noc(-c2ccccc2)c1NC(=O)NC1CCN(CCCCCNC(=O)/C=C/c2ccc(Cl)c(Cl)c2)CC1` gave an XC50 of 985 nM.
`O=C1NC(=O)C(c2cccc(NC(=O)c3ccncc3)c2)=C1c1ccccc1` showed an XC50 of 735 nM.
Work on `O=C(Nc1cccc(-c2ccc(-c3nc4cc(C(F)(F)F)ccc4[nH]3)cc2)c1)c1ccoc1` yielded an XC50 of 714 nM.
For `N#Cc1ccccc1N1CCN(C2CCC(NC(=O)c3n[nH]c4cc(C(F)(F)F)ccc34)CC2)CC1` (configuration not stated), the XC50 was 1370 nM.
With `Cc1cc(Nc2cccc(C(F)(F)F)c2)nc2ccc(NC(=O)c3ccc(=O)[nH]c3)cc12` the XC50 was 487 nM.
`CC(C)[C@H](NC(=O)c1c(F)cccc1F)C(=O)Nc1ccc(Cc2nc3ccccc3s2)cc1` showed an XC50 of 498 nM.
`CCCC(C(CC1CCC(C)CC1)C(=O)NC(CCCNc1ncccn1)C(=O)Nc1nccs1)N(O)C=O` (configuration not stated) gave an XC50 of 187 nM.
Work on `CC(Cc1ccc(NC(=O)c2ccc(CNCc3ccccc3)cc2)cc1)N(CCc1cccc(Cl)c1)C(=O)OC(C)(C)C` (configuration not stated) yielded an XC50 of 974 nM.
Molecule `O=C(Nc1ccc(Cl)cc1Cl)N[C@H]1CCN(CCCCCNC(=O)C2CC2c2ccc(Cl)c(Cl)c2)C1` (some centres not stated) has an XC50 of 989 nM.
With `CC(COc1ccc2c(c1)OC(C)(C)CC2c1ccccc1)NCC(O)c1cccc(Cl)c1` (configuration not stated) the XC50 was 752 nM.
With `Fc1ccc2[nH]c(-c3ccc(-c4ccc(CNCc5cnn(-c6ccccc6)n5)cc4)cc3)nc2c1` the XC50 was 540 nM.
`CCC(=C(CC)c1ccc(O)c(CNC2CCCCC2)c1)c1ccc(O)c(CNC2CCCCC2)c1` gave an XC50 of 152 nM.
`OC(c1cccc(OCc2ccccc2)c1)C1CN(CCc2ccccc2)CCC1(O)c1ccccc1` (configuration not stated) showed an XC50 of 218 nM.
With `CN(C)CCNC(=O)c1ccc2c(c1)n(C1CCN(S(=O)(=O)c3ccc(-c4ccccc4)cc3)CC1)c(=O)n2CC1CCCCC1` the XC50 was 624 nM.
`COc1ccc2c(c1)[nH]c1c(C=Cc3ccccc3)nccc12` was tested, and the XC50 was 379 nM.
`O=C(Nc1ccc(Cl)cc1)Nc1nc2cc([N+](=O)[O-])ccc2[nH]1` gave an XC50 of 801 nM.
In the case of `CCC1N=C(N)N=C(N)N1OCc1cccc2ccccc12` (configuration not stated), the XC50 was 3.2 nM.
`Cc1ccc(NC(=O)c2ccc(CN3CCCN(Cc4cccc(O)c4)CC3)cc2)cc1` showed an XC50 of 743 nM.
In the case of `CC(CCc1ccccc1)NCC(O)c1ccc2c(c1)S(=O)(=O)c1ccccc1N2` (configuration not stated), the XC50 was 1220 nM.
`COc1cccc(OC2CCN(C(=O)c3ccc(-c4ccc(N5CCCC5=O)cc4C)cc3)CC2)c1` was tested, and the XC50 was 1010 nM.
Molecule `COc1ccc2ncc(F)c([C@@H](O)CN3CCC(NCc4cc5c(cn4)OCS5)CC3)c2c1` has an XC50 of 141 nM.
`COc1ccc(-c2cn3c(C(=O)Nc4ccccc4Cl)c(-c4ccccc4)c4c3n2CCCC4)cc1` gave an XC50 of 792 nM.
`COc1ccc2[nH]c(C)cc(=NN=Cc3ccc(Cl)cc3)c2c1` was tested, and the XC50 was 228 nM.
`COc1ccccc1N1CCN(C(C(=O)NCc2cccc(F)c2)c2ccc(C)cc2)CC1` (configuration not stated) showed an XC50 of 892 nM.
In the case of `CN(c1ccc(NC(=O)CCOc2ccccc2)cc1)C1CCN(Cc2cccc(O)c2)CC1`, the XC50 was 1320 nM.
Molecule `c1ccc(COc2ccc(COc3ccc(Cn4ccnc4)cc3)cc2)cc1` has an XC50 of 947 nM.
Molecule `Cc1cccc2nc(-c3ccc(-c4cccc(CN5CCC(C(N)=O)CC5)c4)cc3)[nH]c12` has an XC50 of 1770 nM.
In the case of `Cc1ccc(NC(=O)c2ccc3ncccc3c2)cc1OC1CCN(Cc2ccco2)C1` (configuration not stated), the XC50 was 1250 nM.
`O=C(NC1CCCCC1)N(Cc1cccc(-c2ccc(CNCc3ccc4c(c3)OCO4)cc2)c1)C1CCN(Cc2ccccc2)CC1` gave an XC50 of 788 nM.
Molecule `COc1ccc2nc(N=C3NC4(c5ccccc5)NC(=Nc5nc6ccc(OC)cc6[nH]5)NC4(c4ccccc4)N3)[nH]c2c1` (configuration not stated) has an XC50 of 204 nM.
`CS(=O)(=O)c1ccc(CCNCc2ccc(-c3ccc(CN(C(=O)C4CCCC4)C4CCN(Cc5ccccc5)CC4)cc3)nc2)cc1` was tested, and the XC50 was 832 nM.
`COc1ccc2nccc([C@@H](O)CN3CCC(CO)(NCc4cc5ccccc5o4)CC3)c2c1` showed an XC50 of 1370 nM.
For `COc1cc(F)c2ncc(Cl)c([C@H](O)CN3CCC(NCc4ccc5c(n4)NC(=O)CO5)CC3)c2c1`, the XC50 was 161 nM.
`Cc1cc(NC(=O)c2cccs2)ccc1OC1CCN(Cc2ccccc2)C1` (configuration not stated) was tested, and the XC50 was 895 nM.
In the case of `O=C(NC1CCN(Cc2ccc(O)cc2)CC1)c1ccc(Cl)c(Cl)c1`, the XC50 was 1180 nM.
`CC(=O)Nc1ccc(OCCCCN(Cc2ccccc2C(F)(F)F)c2ccc(C#N)c(C(F)(F)F)c2)cc1` gave an XC50 of 1390 nM.
`CCN(CCCN1CCCCC1)c1cc(C)nc(Nc2ccc(Cl)cc2)n1` was tested, and the XC50 was 385 nM.
For `O=C(c1csc(-c2cccnc2)n1)N1CCc2cc3nccc(N4CCN5CCC[C@H]5C4)c3cc21`, the XC50 was 695 nM.
For `O=C(NCc1cccc(F)c1)Nc1ccc(-c2cccc(-c3nc4ccccc4[nH]3)c2)cc1`, the XC50 was 894 nM.
`Nc1ncc(-c2cccc(F)c2)cc1-c1nc2cc(F)ccc2[nH]1` showed an XC50 of 175 nM.
`CC(=NNC(=N)N)c1ccc2c(ccc3ccccc32)c1` gave an XC50 of 833 nM.
With `O=C(Nc1cccc(-c2ccc(-c3nc4cc(F)ccc4[nH]3)cc2)c1)Nc1ccc(Cl)c(Cl)c1` the XC50 was 139 nM.
`COc1ccc(F)cc1-c1cccc(CNC2CCN(CC3Cn4c(=O)ccc5ccc(F)c3c54)CC2)c1` (configuration not stated) showed an XC50 of 830 nM.
With `CC(=O)N(C)C1CCN(Cc2ccc(-c3ccc(-c4nc5cc(F)ccc5[nH]4)s3)cc2)C1` (configuration not stated) the XC50 was 971 nM.
`CC1(C)Cc2c([nH]c3ccccc23)C(CCCCCCCCC2=NC(C)(C)Cc3c2[nH]c2ccccc32)=N1` showed an XC50 of 933 nM.
Work on `Oc1cccc(/C=N/Nc2ccnc3cc(Cl)ccc23)c1` yielded an XC50 of 728 nM.
For `COc1ccc2ncc(C#N)c(CCN3C[C@H](CNCc4ccccc4)[C@H](O)C3)c2n1`, the XC50 was 1060 nM.
